How the values were obtained:
[1] = system: C57B1/6J mice; assay: Changes in body weight of mice after a single subcutaneous injection of TCDD; type: in vivo; conditions: for Weight (body weight): at sacrifice
Description: (§1) Male C57B1/6J mice of 5 weeks old having the average weight of 18-22 g which had been bred in CRJ (Charles River in Japan) were purchased and used in this example as experimental animals. Those mice were acclimated under the constant breeding condition, i.e. the temperature of 24±1° C., the humidity of 60±10% and the light and darkness cycle of 12 hours, for one week and thereafter, utilized in the experiment.
(§2) The Experimental animals were supplied with Purina powdered feed (purchased from Hae Eun Trade) and supplied with water ad libitum. All the animals were weighed twice a week during experimentation.
(§3) 2,3,7,8-tetrachlorodibenzo-p-dioxin (TCDD) dissolved in toluene (purity of 95% or more as a result of gas chromatography analysis), manufactured by Chem. Services Inc. in USA, was volatilized with nitrogen to obtain powder. The obtained powder was dissolved in a mixed solvent containing acetone and corn oil with a volume ratio of 1:6. The resulting solution each containing 110, 27.5 and 6.9 μg/kg of TCDD was subcutaneously injected to mice at a volume of 5 ml per body weight. […] The mice were supplied with the feed from 10 days before (pre-administration) to 60 days after administration of TCDD (post-administration).
(§4) The results are expressed as Mean±Standard Deviation values. For statistical analysis of the body weight, feed and water uptake, biochemical findings, hematological findings and the weight of organ in an acute toxicity test, verification was performed by one way analysis of variance (ANOVA) in case of equal distribution. In case significance was recognized in ANOVA, the Student's t-test was performed in the levels of p<0.05 and p<0.01.

[2] = system: C57B1/6J mice; assay: Water uptake of mice after a single subcutaneous injection of TCDD; type: in vivo; design: unit not given here
Description: as §1, §2, §3, §4

[3] = TCDD 27.5 μg/kg + UDCA 0.25 wt %, 50 days
[4] = TCDD 27.5 μg/kg + UDCA 0.5 wt %, 50 days
[5] = TCDD 110.0 μg/kg + UDCA 0.5 wt %, 50 days

SMILES: C[C@H](CCC(=O)O)[C@H]1CC[C@H]2[C@@H]3[C@@H](O)C[C@@H]4C[C@H](O)CC[C@]4(C)[C@H]3CC[C@]12C [UDCA, 3α, 7β-dihydroxy-5β-cholanoic acid]
- body weight [1, 3]: 26.94 ± 0.50
- body weight ([1]; TCDD 27.5 μg/kg + UDCA 0.25 wt %, 59 days): 27.27 ± 0.51
- Weight (body weight) ([1]; TCDD 27.5 μg/kg + UDCA 0.25 wt %): 24.62 ± 1.44 g
- body weight ([1]; TCDD 27.5 μg/kg + UDCA 0.5 wt %, 0 day): 19.08 ± 0.20
- body weight ([1]; TCDD 27.5 μg/kg + UDCA 0.5 wt %, 12 days): 21.09 ± 0.32
- body weight ([1]; TCDD 27.5 μg/kg + UDCA 0.5 wt %, 22 days): 22.52 ± 0.33
- body weight ([1]; TCDD 27.5 μg/kg + UDCA 0.5 wt %, 32 days): 23.33 ± 0.32
- body weight ([1]; TCDD 27.5 μg/kg + UDCA 0.5 wt %, 39 days): 24.07 ± 0.34
- body weight [1, 4]: 25.31 ± 0.43
- body weight ([1]; TCDD 27.5 μg/kg + UDCA 0.5 wt %, 59 days): 24.52 ± 0.42
- Weight (body weight) ([1]; TCDD 27.5 μg/kg + UDCA 0.5 wt %): 22.15 ± 1.14 g
- body weight ([1]; TCDD 110.0 μg/kg + UDCA 0.125 wt %, 0 day): 19.48 ± 0.29
- body weight ([1]; TCDD 110.0 μg/kg + UDCA 0.125 wt %, 12 days): 19.40 ± 0.40
- body weight ([1]; TCDD 110.0 μg/kg + UDCA 0.125 wt %, 22 days): 18.44 ± 0.87
- body weight ([1]; TCDD 110.0 μg/kg + UDCA 0.125 wt %, 32 days): 12.61
- Weight (body weight) ([1]; TCDD 110.0 μg/kg + UDCA 0.125 wt %): 15.93 g
- body weight ([1]; TCDD 110.0 μg/kg + UDCA 0.25 wt %, 0 day): 19.65 ± 0.44
- body weight ([1]; TCDD 110.0 μg/kg + UDCA 0.25 wt %, 12 days): 20.64 ± 0.50
- body weight ([1]; TCDD 110.0 μg/kg + UDCA 0.25 wt %, 22 days): 19.69 ± 1.03
- body weight ([1]; TCDD 110.0 μg/kg + UDCA 0.25 wt %, 32 days): 18.78 ± 1.14
- body weight ([1]; TCDD 110.0 μg/kg + UDCA 0.25 wt %, 39 days): 14.26
- body weight ([1]; TCDD 110.0 μg/kg + UDCA 0.25 wt %, 50 days): 14.85
- body weight ([1]; TCDD 110.0 μg/kg + UDCA 0.25 wt %, 59 days): 17.10
- Weight (body weight) ([1]; TCDD 110.0 μg/kg + UDCA 0.25 wt %): 18.53 ± 3.79 g
- body weight ([1]; TCDD 110.0 μg/kg + UDCA 0.5 wt %, 0 day): 19.71 ± 0.14
- body weight ([1]; TCDD 110.0 μg/kg + UDCA 0.5 wt %, 12 days): 20.52 ± 0.32
- body weight ([1]; TCDD 110.0 μg/kg + UDCA 0.5 wt %, 22 days): 21.15 ± 0.82
- body weight ([1]; TCDD 110.0 μg/kg + UDCA 0.5 wt %, 32 days): 20.76 ± 1.04
- body weight ([1]; TCDD 110.0 μg/kg + UDCA 0.5 wt %, 39 days): 19.81 ± 1.37
- body weight [1, 5]: 18.19 ± 1.80
- body weight ([1]; TCDD 110.0 μg/kg + UDCA 0.5 wt %, 59 days): 18.53 ± 1.59
- water uptake ([2]; TCDD 6.9 μg/kg + UDCA 0.125 wt %, 10 days): 4.54 ± 0.71
- water uptake ([2]; TCDD 6.9 μg/kg + UDCA 0.125 wt %, 20 days): 3.75 ± 0.90
- water uptake ([2]; TCDD 6.9 μg/kg + UDCA 0.125 wt %, 30 days): 4.00 ± 0.00
- water uptake ([2]; TCDD 6.9 μg/kg + UDCA 0.125 wt %, 40 days): 4.00 ± 0.00
- water uptake ([2]; TCDD 6.9 μg/kg + UDCA 0.125 wt %, 50 days): 4.06 ± 1.34
- water uptake ([2]; TCDD 6.9 μg/kg + UDCA 0.125 wt %, 60 days): 4.64 ± 0.51
- water uptake ([2]; TCDD 6.9 μg/kg + UDCA 0.25 wt %, 10 days): 4.27 ± 1.16
- water uptake ([2]; TCDD 6.9 μg/kg + UDCA 0.25 wt %, 20 days): 3.83 ± 1.04
- water uptake ([2]; TCDD 6.9 μg/kg + UDCA 0.25 wt %, 30 days): 4.00 ± 0.00
- water uptake ([2]; TCDD 6.9 μg/kg + UDCA 0.25 wt %, 40 days): 3.60 ± 0.57
- water uptake ([2]; TCDD 6.9 μg/kg + UDCA 0.25 wt %, 50 days): 4.28 ± 1.02
- water uptake ([2]; TCDD 6.9 μg/kg + UDCA 0.25 wt %, 60 days): 4.69 ± 0.43
- water uptake ([2]; TCDD 6.9 μg/kg + UDCA 0.5 wt %, 10 days): 4.12 ± 0.94
- water uptake ([2]; TCDD 6.9 μg/kg + UDCA 0.5 wt %, 20 days): 3.80 ± 0.70
- water uptake ([2]; TCDD 6.9 μg/kg + UDCA 0.5 wt %, 30 days): 4.00 ± 0.63
- water uptake ([2]; TCDD 6.9 μg/kg + UDCA 0.5 wt %, 40 days): 3.78 ± 0.31
- water uptake ([2]; TCDD 6.9 μg/kg + UDCA 0.5 wt %, 50 days): 4.35 ± 1.08
- water uptake ([2]; TCDD 6.9 μg/kg + UDCA 0.5 wt %, 60 days): 5.06 ± 0.70
- water uptake ([2]; TCDD 27.5 μg/kg + UDCA 0.125 wt %, 10 days): 3.67 ± 1.10
- water uptake ([2]; TCDD 27.5 μg/kg + UDCA 0.125 wt %, 20 days): 3.92 ± 1.13
- water uptake ([2]; TCDD 27.5 μg/kg + UDCA 0.125 wt %, 30 days): 4.30 ± 0.42
- water uptake ([2]; TCDD 27.5 μg/kg + UDCA 0.125 wt %, 40 days): 4.20 ± 0.28
- water uptake ([2]; TCDD 27.5 μg/kg + UDCA 0.125 wt %, 50 days): 4.44 ± 0.79
- water uptake ([2]; TCDD 27.5 μg/kg + UDCA 0.125 wt %, 60 days): 4.81 ± 0.26
- water uptake ([2]; TCDD 27.5 μg/kg + UDCA 0.25 wt %, 10 days): 4.04 ± 0.75
- water uptake ([2]; TCDD 27.5 μg/kg + UDCA 0.25 wt %, 20 days): 3.92 ± 0.63
- water uptake ([2]; TCDD 27.5 μg/kg + UDCA 0.25 wt %, 30 days): 4.00 ± 0.00
- water uptake ([2]; TCDD 27.5 μg/kg + UDCA 0.25 wt %, 40 days): 4.00 ± 0.00
- water uptake [2, 3]: 4.44 ± 0.79
- water uptake ([2]; TCDD 27.5 μg/kg + UDCA 0.25 wt %, 60 days): 4.81 ± 0.26
- water uptake ([2]; TCDD 27.5 μg/kg + UDCA 0.5 wt %, 10 days): 3.91 ± 0.95
- water uptake ([2]; TCDD 27.5 μg/kg + UDCA 0.5 wt %, 20 days): 4.35 ± 0.98
- water uptake ([2]; TCDD 27.5 μg/kg + UDCA 0.5 wt %, 30 days): 4.44 ± 0.00
- water uptake ([2]; TCDD 27.5 μg/kg + UDCA 0.5 wt %, 40 days): 4.44 ± 0.00
- water uptake [2, 4]: 4.41 ± 1.00
- water uptake ([2]; TCDD 27.5 μg/kg + UDCA 0.5 wt %, 60 days): 4.88 ± 0.33
- water uptake ([2]; TCDD 110.0 μg/kg + UDCA 0.125 wt %, 10 days): 4.03 ± 1.21
- water uptake ([2]; TCDD 110.0 μg/kg + UDCA 0.125 wt %, 20 days): 4.07 ± 0.64
- water uptake ([2]; TCDD 110.0 μg/kg + UDCA 0.125 wt %, 30 days): 3.33 ± 0.94
- water uptake ([2]; TCDD 110.0 μg/kg + UDCA 0.25 wt %, 10 days): 3.79 ± 1.06
- water uptake ([2]; TCDD 110.0 μg/kg + UDCA 0.25 wt %, 20 days): 3.83 ± 0.14
- water uptake ([2]; TCDD 110.0 μg/kg + UDCA 0.25 wt %, 30 days): 4.67 ± 0.94
- water uptake ([2]; TCDD 110.0 μg/kg + UDCA 0.25 wt %, 40 days): 4.14 ± 0.20
- water uptake ([2]; TCDD 110.0 μg/kg + UDCA 0.5 wt %, 10 days): 3.75 ± 0.50
- water uptake ([2]; TCDD 110.0 μg/kg + UDCA 0.5 wt %, 20 days): 3.42 ± 0.80
- water uptake ([2]; TCDD 110.0 μg/kg + UDCA 0.5 wt %, 30 days): 4.20 ± 0.28
- water uptake ([2]; TCDD 110.0 μg/kg + UDCA 0.5 wt %, 40 days): 3.50 ± 0.71
- water uptake [2, 5]: 3.14 ± 0.59
- water uptake ([2]; TCDD 110.0 μg/kg + UDCA 0.5 wt %, 60 days): 3.32 ± 0.33

From patent US20040029965A1, “Formulations for reducing or eliminating toxicity of enviromental hormones containing ursodeoxycholic acid” (priority 2000, published 2004)
